Data set [1] is described as follows: Chemical stability in HBSS buffer (pH 7.4) / simulated gastric fluid. The format is physicochemical. The conditions noted are these: for Percentage remaining: HBSS, 10 μM, 37° C.; for chemical stability: chemical hydrolysis / HBSS buffer. How it is done: The chemical stability of prodrugs was evaluated using simulated gastric fluid (pH 1.2) and Hanks' Balanced Salt Solution (HBSS) buffer (pH 7.4). Briefly, prodrugs were spiked (10 μM) in respective solutions and incubated at 37° C. for 1 h. At predetermined time points (0, 30 and 60 min), aliquots of 100 μL were removed and diluted with 100 μL of water. Prodrug disappearance was monitored using the developed liquid chromatography and tandem mass spectrometry (LC/MS/MS) method described below.
(§1) For LC/MS/MS, prodrugs were separated with Thermo Scientific Accela UPLC system coupled to Accela open autosampler on an Agilent C18 (100×2.1 mm id) UPLC column. The autosampler was temperature controlled and operating at 10° C. The mobile phase used for the chromatographic separation was composed of acetonitrile/water containing 0.1% formic acid and was run at a flow rate of 0.5 mL/minute for 4.5 minutes using gradient elution. The column effluent was monitored using TSQ Vantage triple-quadrupole mass spectrometric detector, equipped with an electrospray probe set in the positive ionization mode. Samples were introduced into the ionization source through a heated nebulized probe (350° C.).
(§2) For quantification of compound remaining, disappearance of prodrugs was measured from ratio of peak areas of analyte to IS. Percentage remaining was calculated in the following manner: […]

The nature of data set [2]: Metabolic stability in mouse plasma. The conditions noted are these: 10 μM, 37° C. Format: in vitro ADME. How it is done:
(§3) For metabolic stability, plasma (mouse, dog, monkey and human) and liver microsomes (mouse, dog, monkey and human) were used. For stability, prodrugs (10 μM) were spiked in each matrix and incubated in an orbital shaker at 37° C. At predetermined times (0, 30 and 60 min), 100 μL aliquots of the mixture in triplicate were removed and the reaction quenched by addition of three times the volume of ice cold acetonitrile spiked with the internal standard (losartan 5 μM). The samples were vortexed for 30 s and centrifuged 12000 g for 10 min. 50 μL supernatant diluted with 50 μL water was transferred to a 250 μL polypropylene vial sealed with a Teflon cap. Prodrug disappearance was monitored over time using a liquid chromatography and tandem mass spectrometry (LC/MS/MS) method as described below.
as §1, §2

Data set [3] in a line: Metabolic stability in mouse liver S9. The format is in vitro ADME. The conditions noted are these: Mouse S9, 10 μM, 37° C.
Data set [4] in a line: Metabolic stability in mouse liver microsomes. Format: in vitro ADME. The conditions noted are these: 10 μM, 37° C. How it is done: as §3, §1, §2
(In general: Microsomes from liver hold many membrane-bound enzymes, among them those of drug oxidation.)

The nature of data set [5]: Metabolic stability in human plasma. The conditions noted are these: 10 μM, 37° C. The format is in vitro ADME. As to the method: as §3, §1, §2
Data set [6] is described as follows: Metabolic stability in human liver microsomes. The conditions noted are these: 10 μM, 37° C. The format is in vitro ADME. How it is done:
as §3, §1, §2

Data set [7] is described as follows: In vivo pharmacokinetics in mice, peroral, bioanalysis method 1 (total prodrug exposure). The conditions noted are these: oral dosing; for permeability in vivo: mice. How it is done:
Blood was obtained via cardiac puncture and tissue dissected at 0 min, 15 min, 30 min, 1 h, 2 h, and 4 h post dose (n=3 per time point). Single time point studies were conducted at 30 min (N=3) following dosing. Plasma was harvested from blood by centrifugation. Mean concentration-time data was used for pharmacokinetic (PK) analysis. Non-compartmental-analysis module in WinNonlin® (version 5.3) was used to assess pharmacokinetic parameters. Peak plasma concentrations (Cmax) and time to Cmax (Tmax) were the observed values. Area under the curve (AUC) was calculated by log-linear (p.o.) trapezoidal rule to the end of sample collection (AUClast) and extrapolated to infinity (AUC0-∞) by dividing the last quantifiable concentration by the terminal disposition rate constant (ke). Terminal half-life (t1/2) was estimated from first order kinetics: t1/2=0.693/ke.
Briefly, prior to extraction, frozen samples were thawed on ice. For plasma extraction, 50 μL of the calibration standards or samples were transferred into silanized microcentrifuge tubes. Sample preparation involved a single liquid extraction by addition of 300 μL of methanol as extraction solution with internal standard (i.e., 5 μM of 2-PMSA in methanol), followed by vortexing for 30 s and then centrifugation at 12000 g for 10 min. Supernatant was transferred (˜250 μL) and evaporated to dryness at 40° C. under a gentle stream of nitrogen. The residue was reconstituted with 100 μL of derivatizing agent, n-butanol with 3N HCl, and samples were vortexed. The samples were heated at ˜60 OC in a shaking water bath for 30 min. At the end of 30 min, the derivatized samples were allowed to cool at room temperature and dried again for removal of derivatizing reagent, under a gentle stream of nitrogen. The residue was reconstituted in 100 μL of 30% acetonitrile in water v/v. The samples were vortexed and centrifuged again. ˜80 μL supernatant was transferred to a 250 μL polypropylene vial sealed with a Teflon cap and a volume of 10 μL was injected onto the ultra-performance liquid chromatography (UPLC) instrument for quantitative analysis. Chromatographic analysis was performed using an Accela™ ultra high-performance system consisting of an analytical pump, and an autosampler coupled with TSQ Vantage mass spectrometer (Thermo Fisher Scientific Inc., Waltham Mass.). […] The mobile phase used was composed of 0.1% formic acid in acetonitrile and 0.1% formic acid in H2O with gradient elution, starting with 20% (organic) linearly increasing to 65% up to 2.5 min, maintaining at 65% (2.5-3.5 min) and reequilibrating to 30% by 5 min. The total run time for each analyte was 5.0 min.

On to `CCOC(=O)[C@H](Cc1ccccc1)NP(=O)(CC(CCC(=O)OC)C(=O)OC)N[C@@H](Cc1ccccc1)C(=O)OCC` (stereo partly drawn) [Compound 17, Dimethyl 2-((bis(((S)-1-ethoxy-1-oxo-3-phenylpropan-2-yl)amino)phosphoryl)methyl)pentanedioate], for which the Percentage remaining in data set [1] (0 min) was 100%; in data set [1] (30 min), 93%; in data set [1] (60 min), 93%; in data set [2] (0 min), 100%; in data set [2] (30 min), 2%; in data set [2] (60 min), 1%. The Percentage remaining was determined as 100% in data set [3] (0 min); 0% in data set [3] (30 min); 0.1% in data set [3] (60 min); 100% in data set [4] (0 min); 2% in data set [4] (30 min); 0.1% in data set [4] (60 min). Further, the “chemical stability” value in data set [1] is listed as “stable in HBSS buffer”.

For the compound `CCCCCCCCCCCCCCCCOCCCOP(=O)(CC(CCC(=O)O)C(=O)O)OCCCOCCCCCCCCCCCCCCCC` (stereo not drawn) [Compound 12, 2-((Bis(3-(hexadecyloxy)propoxy)phosphoryl)methyl)pentanedioic acid], in data set [1], the “chemical stability” value is on record as “sufficient chemical stability”.

`CC(C)OC(=O)OCOP(=O)(CC(CCC(=O)O)C(=O)O)OCOC(=O)OC(C)C` (stereo not drawn) [Compound 4]: the “chemical stability” value in data set [1] is on record as “chemical instability”.

As for `CC(C)OC(=O)OCOP(=O)(CC(CCC(=O)O)C(=O)OCC(=O)N(C)C)OCOC(=O)OC(C)C` (stereo not drawn) [Compound 25], the Percentage remaining worked out at 100% in data set [2] (0 min); 0% in data set [2] (30 min); 0% in data set [2] (60 min); 100% in data set [4] (0 min); 49% in data set [4] (30 min); 22% in data set [4] (60 min). In addition, the Percentage remaining in data set [5] (0 min) was 100%; in data set [5] (30 min) it was 109%; in data set [5] (60 min), 76%; in data set [6] (0 min) it was 100%; in data set [6] (30 min), 80%; in data set [6] (60 min), 61%.

`COC(=O)C(CCC(=O)O)CP(=O)(OCOC(=O)C(C)(C)C)OCOC(=O)C(C)(C)C` (stereo not drawn) [Compound 8, 4-({Bis[(pivaloyloxy)methoxy]phosphoryl}methyl)-5-methoxy-5-oxopentanoic acid]: in data set [7], the “oral availability of prodrug” value is “good oral availability”.

Take `CCCCCCCCCCOP(=O)(CC(CCC(=O)O)C(=O)OC)OCCCCCCCCCC` (stereo not drawn) [Compound 22, 4-{[Bis(decyloxy)phosphoryl]methyl}-5-methoxy-5-oxopentanoic acid]: the “permeability in vivo” value in data set [7] was “did not show a high permeability in vivo”.

For `CC(C)OC(=O)OC(C)OP(=O)(CC(CCC(=O)O)C(=O)OCC(=O)N(C)C)OC(C)OC(=O)OC(C)C` (stereo not drawn) [Compound 26], the Percentage remaining came to 100% in data set [2] (0 min); 3% in data set [2] (30 min); 1% in data set [2] (60 min); 100% in data set [4] (0 min); 86% in data set [4] (30 min); 68% in data set [4] (60 min). The Percentage remaining in data set [5] (0 min) amounted to 100%; in data set [5] (30 min) it was 98%; in data set [5] (60 min) it was 92%; in data set [6] (0 min), 100%; in data set [6] (30 min) it was 92%; in data set [6] (60 min), 81%.

As for `COC(=O)C(CCC(=O)O)CP(=O)(O)O` (stereo not drawn) [Compound 9], in data set [7], the “oral availability of prodrug” value is on record as “good oral availability”.

With `CC(C)(C)C(=O)OCOP(=O)(CC(CCC(=O)O)C(=O)O)OCOC(=O)C(C)(C)C` (stereo not drawn) [Compound 5], the “chemical stability” value in data set [1] is “chemical instability”.

For the compound `COC(=O)CCC(CP(=O)(OCOC(=O)C(C)(C)C)OCOC(=O)C(C)(C)C)C(=O)OCOC(=O)C(C)(C)C` (stereo not drawn) [Compound 11], the “chemical stability” value in data set [1] is listed as “sufficient chemical stability”.

Take `COC(=O)CCC(CP(=O)(OCOC(=O)C(C)(C)C)OCOC(=O)C(C)(C)C)C(=O)OC` (stereo not drawn) [Compound 14]: the Percentage remaining in data set [1] (0 min) is reported as 100%; in data set [1] (30 min), 46%; in data set [1] (60 min), 21%; in data set [2] (0 min), 100%; in data set [2] (30 min) it was 0%; in data set [2] (60 min), 0%. Further, the Percentage remaining in data set [3] (0 min) was 100%; in data set [3] (30 min) it was 1%; in data set [3] (60 min) it was 0%; in data set [4] (0 min) it was 100%; in data set [4] (30 min), 2%; in data set [4] (60 min) it was 0%. Moreover, in data set [1], the “chemical stability” value is reported as “fall apart easily even in HBSS buffer”. Besides, in data set [7], the “permeability in vivo” value was “most permeable”.

With `CCCCOC(=O)c1ccccc1OP(=O)(CC(CCC(=O)O)C(=O)OC)Oc1ccccc1C(=O)OCCCC` (stereo not drawn) [Compound 21, 4-({Bis[2-(butoxycarbonyl)phenoxy]phosphoryl}methyl)-5-methoxy-5-oxopentanoic acid], in data set [7], the “permeability in vivo” value was “did not show a high permeability in vivo”.

Consider `CCCCOC(=O)c1ccccc1OP(=O)(CC(CCC(=O)OC)C(=O)OC)Oc1ccccc1C(=O)OCCCC` (stereo not drawn) [Compound 16, Dimethyl 2-({bis[2-(butoxycarbonyl)phenoxy]phosphoryl}methyl)pentanedioate], for which the Percentage remaining in data set [1] (0 min) is recorded as 100%; in data set [1] (30 min) it was 100%; in data set [1] (60 min), 95%; in data set [2] (0 min), 100%; in data set [2] (30 min), 3%; in data set [2] (60 min), 1%. Moreover, the Percentage remaining is recorded as 100% in data set [3] (0 min); 1% in data set [3] (30 min); 2% in data set [3] (60 min); 100% in data set [4] (0 min); 3% in data set [4] (30 min); 2% in data set [4] (60 min). In addition, in data set [1], the “chemical stability” value was “stable in HBSS buffer”.

The record behind these values is patent publication US9988407B2, “Prodrugs of prostate specific membrane antigen (PSMA) inhibitor” (THE JOHNS HOPKINS UNIVERSITY, priority 2014, dated 2018).
